We go through 16 compounds from PMC10938439, “C-3 Steroidal Hemiesters as Inhibitors of 17β-Hydroxysteroid Dehydrogenase Type 10” (ACS Omega, 2024).

In data set [1] the target is T1, 17β-HSD10 (Homo sapiens, UniProt Q99714).
T1 construct: inferred from Ni-NTA purification with imidazole elution; made in house; host or cells: E. coli BL21 (DE3)
T1 sequence (Q99714 1-261): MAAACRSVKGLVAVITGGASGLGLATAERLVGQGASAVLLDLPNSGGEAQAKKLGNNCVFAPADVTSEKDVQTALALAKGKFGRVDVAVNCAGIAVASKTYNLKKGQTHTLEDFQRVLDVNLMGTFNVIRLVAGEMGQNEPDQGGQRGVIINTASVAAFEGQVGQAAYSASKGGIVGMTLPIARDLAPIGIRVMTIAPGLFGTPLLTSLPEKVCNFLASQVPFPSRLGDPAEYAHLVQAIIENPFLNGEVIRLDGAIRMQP
The data set is described as follows: Inhibition of 17β-estradiol to estrone transformation by purified recombinant 17β-HSD10 (NADH fluorescence). Format: biochemical. The note with it: for IC50: purified recombinant 17β-HSD10, 17β-estradiol as substrate, means ± SEM (n = 4); for inhibition at 1 µM: read-out: Inhibition at 1 µM (%) (this study); for inhibition at 10 µM: read-out: Inhibition at 10 µM (%) (this study). As to the method: As standards, we used the known inhibitor AG18051 as the positive control and the published steroidal compounds,[18] namely, pregnenolone, testosterone, dihydrotestosterone, androsterone, epiandrosterone, and dehydroepiandrosterone.
17β-HSD10 was performed as described previously.[11] Briefly, the autoinduction and overexpression were performed at 25 °C for 18 h in the E. coli BL21 (DE3) strain. The bacterial pellet was resuspended in lysis buffer that consisted of sodium phosphate buffer ([…]), NaCl (150 mM), and imidazole (10 mM, pH 8.0) with 1 mg/mL lysozyme and benzonase (150 U/mL). cOmplete EDTA-free protease inhibitor cocktail was incubated for 20 min on ice and then sonicated (12 × 10 s pulses with 30 s pauses). The supernatant was applied to the Ni-NTA agarose resin after centrifugation (16 000g, 10 min, 4 °C). Then, the solution was incubated on ice for 1 h with gentle stirring.
The standard steroids were screened at 1 and 10 μM concentrations, and the tested compounds and standard AG18051 were screened at 10 μM concentration. For compounds with at least 50% inhibition of 17β-HSD10, the IC50 values were determined.
Steroid stock solutions (5 mM) were further diluted with DMSO to the working concentrations. DMSO was used as a vehicle control, and AG18051 was used as a control inhibitor. The enzyme activity was determined fluorometrically at 37 °C in the activity assay buffer [100 mM potassium phosphate buffer (pH 8.0)]. The general reaction mixture (200 μL per well) consisted of 17β-estradiol (25 μM, DMSO), NAD+ (500 μM, deionized water), recombinant 17β-HSD10 (45 nM), and different concentrations of inhibitor (2.2% (v/v) final concentration of DMSO as solvent). Before the addition of substrate, the reaction mixture of enzyme, cofactor, and inhibitor in the assay buffer was preincubated for 5 min at 37 °C. The increase of fluorescence (Ex/Em = 340/460 nm) due to the formation of NADH was monitored for 20 min (30 s intervals). For IC50 value determination, dose–response inhibition at 11 different concentrations of inhibitor (0.6–33.75 μM) was determined and the data were analyzed by GraphPad Prism 8.4.3 (GraphPad Software Inc.). All measurements were performed in a tetraplicate.

The next data set has as its system Caco-2 cells. Set-up: method as in PMID 30296546. The note with it: cited from earlier work.
On the set-up of data set [2]: method as in PMID 30296546. The note with it: cited from earlier work.
On the set-up of data set [3]: method as in PMID 30296546. The following applies: cited from earlier work. This is another data set of the same source.
Data set [4] deals with 17β-HSD10. Set-up: method as in PMID 37458164. The following applies: 17β-HSD10 inhibition, literature value; cited from earlier work.
Data set [5] deals with 17β-HSD10. The note with it: cited from earlier work; for Inhibition at 1 µM (%) Ayan et al. 2012: 1 µM steroid, different (cellular) assay, ref Ayan et al. 2012 (ref 18).
Another data set relates to HEK-293 cell line. Set-up: method as in PMID 37458164. The note with it: cited from earlier work.
Data set [6] deals with 17β-HSD10. Set-up: method as in PMID 30297283. The following applies: in vitro, recombinant enzyme, cited from earlier work.
[7] abbreviates: 10 μM compound, 17β-estradiol as substrate, means ± SD (n = 4).

SMILES strings stand for the structures. Values joined by “and” are separate entries in the source; they are usually repeats but may differ in a detail not shown here. Identical values can stand only once. Like-named read-outs stand apart in the source and are kept apart here.

The term IC50 denotes the concentration that inhibits the measured activity by half. The term inhibition denotes the change of the read-out against control, counted positive when it falls. As a reminder, the Inhibition is the share of the control response that was lost under treatment.

On to `CC[C@H]1CC[C@H]2[C@@H]3CC=C4C[C@@H](OC(=O)CCCC(=O)O)CC[C@]4(C)[C@H]3CC[C@]12C` [Compound 15, Pregn-5-en-3β-yl Hemiglutarate], for which the IC50 at 17β-HSD10 [1] stood at 9.01 ± 0.43 µM. For the same compound, the “Caco-2 cell permeability (50 μM) Papp” value in the data set on Caco-2 cells was 1.9 × 10^–6 cm/s. Also, the “rat plasma stability, % remaining after 8 h” value in data set [2] is 99%. In addition, in data set [3], the “human plasma stability, % remaining after 8 h” value was 100%.
As for `C[C@@]12CCC[C@H]1[C@@H]1CC=C3C[C@@H](OC(=O)CCCCCC(=O)O)CC[C@]3(C)[C@H]1CC2` [Compound 24, Androst-5-en-3β-yl Hemipimelate], the IC50 on 17β-HSD10 [1] was determined as 7.17 ± 0.4 µM. For the same compound, in the data set with Caco-2 cells, the “Caco-2 cell permeability (50 μM) Papp” value is on record as 1.3 × 10^–6 cm/s. Moreover, in data set [2], the “rat plasma stability, % remaining after 8 h” value is 38%. The “human plasma stability, % remaining after 8 h” value in data set [3] was 100%.
With `O=C(C(c1ccccc1)n1cnc2[nH]ncc2c1=S)N1CCCCCC1` (stereo not shown) [AG18051, 1-azepan-1-yl-2-phenyl-2-(4-thioxo-1,4-dihydropyrazolo [3–d]pyrimidin-5-yl)-ethanone], the IC50 in the data set with 17β-HSD10 [4] was 0.09 ± 0.01 µM.
For the compound `C[C@]12CC[C@H](O)CC1=CC[C@@H]1[C@@H]2CC[C@]2(C)C(=O)CC[C@@H]12` [dehydroepiandrosterone], at 17β-HSD10 [1], the inhibition at 1 µM came to 5.4 ± 3.7% and the inhibition at 10 µM came out at 6.6 ± 3.5%. For the same compound, in the data set on 17β-HSD10 [5], the “Inhibition at 1 µM (%) Ayan et al. 2012” value is on record as 0.0 ± 3.2%.
Take `CC(=O)C1CCC2C3CC=C4CC(O)CCC4(C)C3CCC12C` (stereo not shown) [pregnenolone]: on 17β-HSD10 [1] (1 µM steroid, 17β-estradiol as substrate, means ± SD (n = 4)), the inhibition at 1 µM turned out to be 0%. The inhibition at 10 µM at 17β-HSD10 [1] (setting [7]) was 5.9 ± 0.8%. In addition, the “Inhibition at 1 µM (%) Ayan et al. 2012” value in the data set on 17β-HSD10 [5] is listed as 11 ± 2.6%.
On to `C[C@]12CC[C@H]3[C@@H](CCC4=CC(=O)CC[C@@]43C)[C@@H]1CC[C@@H]2O` [testosterone], for which, at 17β-HSD10 [1], the inhibition at 1 µM is 10.3 ± 5.1% and the inhibition at 10 µM was 15.7 ± 3.8%. Further, in the data set on 17β-HSD10 [5], the “Inhibition at 1 µM (%) Ayan et al. 2012” value was 0.0 ± 3.2%.
For `CC(=O)[C@H]1CC[C@H]2[C@@H]3CCC4=C[C@@H](O)CC[C@]4(C)[C@H]3CC[C@]12C` [Compound 26], the “toxicity for HEK-293 cell line” value with HEK-293 cell line is listed as “toxic”.
With `CC(=O)[C@H]1CC[C@H]2[C@@H]3CC=C4C[C@@H](OC(=O)CCCC(=O)O)CC[C@]4(C)[C@H]3CC[C@]12C` [Compound 10, 20-Oxo-pregn-5-en-3β-yl Hemiglutarate], at 17β-HSD10 [1] (setting [7]), the inhibition at 10 µM was around 50%. Moreover, at 17β-HSD10 [1], the IC50 stood at 16.9 ± 1.33 µM.
On to `CC[C@H]1CC[C@H]2[C@@H]3CC=C4C[C@@H](OC(=O)CCC(=O)O)CC[C@]4(C)[C@H]3CC[C@]12C` [Compound 14, Pregn-5-en-3β-yl Hemisuccinate], for which, on 17β-HSD10 [1], the half-inhibitory concentration (IC50) worked out at 9.94 ± 0.23 µM. The “Caco-2 cell permeability (50 μM) Papp” value with Caco-2 cells was 5.7 × 10^–6 cm/s. In data set [2], the “rat plasma stability, % remaining after 8 h” value is given as 55%. For the same compound, the “human plasma stability, % remaining after 8 h” value in data set [3] is 100%.
On to `C[C@@]12CCC[C@H]1[C@@H]1CC=C3C[C@@H](OC(=O)CCC(=O)O)CC[C@]3(C)[C@H]1CC2` [Compound 21, Androst-5-en-3β-yl Hemisuccinate], for which the IC50 at 17β-HSD10 [1] worked out at 7.33 ± 0.45 µM. Moreover, the “Caco-2 cell permeability (50 μM) Papp” value in the data set with Caco-2 cells is 1.0 × 10^–4 cm/s. Also, in data set [2], the “rat plasma stability, % remaining after 8 h” value is on record as 88%. For the same compound, the “human plasma stability, % remaining after 8 h” value in data set [3] was 99%.
As to `C[C@@]12CCC[C@H]1[C@@H]1CC=C3C[C@@H](OC(=O)CCCC(=O)O)CC[C@]3(C)[C@H]1CC2` [Compound 22, Androst-5-en-3β-yl Hemiglutarate], the IC50 on 17β-HSD10 [1] was ~6.95 µM and 6.95 µM. The “Caco-2 cell permeability (50 μM) Papp” value in the data set on Caco-2 cells is recorded as 1.2 × 10^–5 cm/s. Besides, the “rat plasma stability, % remaining after 8 h” value in data set [2] was 57%. The “human plasma stability, % remaining after 8 h” value in data set [3] is listed as 98%.
Regarding `COc1cccc(CN2CCN(C[C@@]3(O)CC[C@@]4(C)[C@@H](CC[C@@H]5[C@@H]4CC[C@]4(C)C(=O)CC[C@@H]54)C3)CC2)c1` [RM-532-46, (3α,5α,17α)-3-Hydroxy-3-[4-(3-methoxybenzyl)piperazin-1-yl]methylandrostan-17-one], the IC50 in the data set with 17β-HSD10 [5] (cellular assay using HEK-293 cells) is 0.55 µM; in the data set with 17β-HSD10 [6] (17β-estradiol, read-out: IC50 using 17β-estradiol as substrate), 610 µM; in the data set with 17β-HSD10 [6] (allopregnanolone, read-out: IC50 using allopregnanolone as substrate) it was 235 µM.
As for `C[C@]12CC[C@@H](O)C[C@@H]1CC[C@@H]1[C@@H]2CC[C@]2(C)C(=O)CC[C@@H]12` [androsterone], on 17β-HSD10 [1], the inhibition at 1 µM turned out to be 3.2 ± 2.2% and the inhibition at 10 µM came to 0%. Moreover, the “Inhibition at 1 µM (%) Ayan et al. 2012” value in the data set on 17β-HSD10 [5] was 7.0 ± 5.9%.
In the case of `C[C@]12CCC(=O)C[C@@H]1CC[C@@H]1[C@@H]2CC[C@]2(C)[C@@H](O)CC[C@@H]12` [dihydrotestosterone], on 17β-HSD10 [1], the inhibition at 1 µM was determined as 0% and the inhibition at 10 µM was determined as 6.3 ± 2%. Besides, the “Inhibition at 1 µM (%) Ayan et al. 2012” value in the data set with 17β-HSD10 [5] is listed as 15 ± 0.8%.
As to `C[C@]12CC[C@H](O)C[C@@H]1CC[C@@H]1[C@@H]2CC[C@]2(C)C(=O)CC[C@@H]12` [epi-androsterone, epiandrosterone], on 17β-HSD10 [1], the inhibition at 1 µM was found to be 2 ± 4.9% and the inhibition at 10 µM is 7 ± 2.5%. In the data set on 17β-HSD10 [5], the “Inhibition at 1 µM (%) Ayan et al. 2012” value is 6.0 ± 1.0%.
Regarding `CC[C@H]1CC[C@H]2[C@@H]3CC=C4C[C@@H](OC(=O)CCCCC(=O)O)CC[C@]4(C)[C@H]3CC[C@]12C` [Compound 16, Pregn-5-en-3β-yl Hemiadipate], the IC50 on 17β-HSD10 [1] stood at 9.29 ± 0.28 µM. The “Caco-2 cell permeability (50 μM) Papp” value with Caco-2 cells was 1.2 × 10^–6 cm/s. Besides, the “rat plasma stability, % remaining after 8 h” value in data set [2] is recorded as 43%. Also, the “human plasma stability, % remaining after 8 h” value in data set [3] is recorded as 94%.
